Experimental findings from article PMC9736874, “Development of Hydroxamate Derivatives Containing a Pyrazoline Moiety as APN Inhibitors to Overcome Angiogenesis” (Molecules, 2022) are described below.

The structures appear in SMILES notation.

The target of data set [1] is T1, porcine kidney aminopeptidase N (APN) (Sus scrofa, UniProt P15145).
T1 construct: purchased Enzo Life Sciences; host or cells: porcine kidney microsomes (tissue-derived)
T1 sequence (P15145 1-963): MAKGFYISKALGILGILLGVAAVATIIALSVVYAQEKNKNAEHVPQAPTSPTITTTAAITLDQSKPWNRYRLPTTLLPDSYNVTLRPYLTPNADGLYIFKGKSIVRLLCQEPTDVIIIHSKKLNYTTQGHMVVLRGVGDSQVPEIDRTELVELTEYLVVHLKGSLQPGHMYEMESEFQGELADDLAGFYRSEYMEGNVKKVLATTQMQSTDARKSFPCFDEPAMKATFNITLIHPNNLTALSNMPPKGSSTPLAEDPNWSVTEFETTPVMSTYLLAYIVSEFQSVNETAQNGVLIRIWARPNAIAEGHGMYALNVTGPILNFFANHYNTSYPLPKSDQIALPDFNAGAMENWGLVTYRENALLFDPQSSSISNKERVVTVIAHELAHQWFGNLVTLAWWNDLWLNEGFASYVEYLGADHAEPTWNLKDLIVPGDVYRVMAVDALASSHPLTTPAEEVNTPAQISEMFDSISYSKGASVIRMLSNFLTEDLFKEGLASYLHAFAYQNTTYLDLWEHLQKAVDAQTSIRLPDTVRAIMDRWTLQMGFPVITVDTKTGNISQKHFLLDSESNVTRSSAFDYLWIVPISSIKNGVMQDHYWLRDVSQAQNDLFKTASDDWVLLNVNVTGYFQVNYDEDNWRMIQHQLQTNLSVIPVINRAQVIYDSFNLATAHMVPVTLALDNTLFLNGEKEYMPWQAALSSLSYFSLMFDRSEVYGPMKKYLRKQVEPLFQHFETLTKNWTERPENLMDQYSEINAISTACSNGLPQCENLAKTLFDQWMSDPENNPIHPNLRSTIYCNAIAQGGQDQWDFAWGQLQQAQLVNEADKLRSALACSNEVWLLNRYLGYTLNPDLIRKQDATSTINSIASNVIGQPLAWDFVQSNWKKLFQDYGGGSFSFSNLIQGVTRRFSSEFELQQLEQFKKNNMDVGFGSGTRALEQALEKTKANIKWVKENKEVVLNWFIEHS
The data set is described as follows: Enzymatic inhibition assay against APN in vitro (L-Leu-p-nitroanilide substrate). The format is biochemical. To be noted: soluble APN from porcine kidney microsomal, 37 °C, 30 min; triplicate, mean ± SD. As to the method: The enzymatic inhibitory activities of target compounds were evaluated using L-Leu-p-nitroanilide (Sigma-Aldrich, St. Louis, MO, USA) as substrate and soluble APN from porcine kidney microsomal (Enzo Life Sciences, Farmingdale, NY, USA) as enzyme. Firstly, the substrate was dissolved in DMSO to a concentration of 16 mmol/L and the enzyme was dissolved in buffer solution of 50 mM PBS (pH = 7.2) for a concentration of 0.15 IU/L. Subsequently, inhibitors (40 μL) and PBS (145 μL) were added into the 96-well plates, followed by the addition of substrate (5 μL) and enzyme (10 μL). After incubation at 37 °C for 30 min, the absorbance values were measured at 405 nm with a plate reader (Varioskan, Thermo Fisher Scientific, Waltham, MA, USA).

With `COc1ccc(C2=NN(C(C)=O)C(c3ccccc3OCC(=O)NO)C2)cc1` (stereo not shown) [Compound 14f, 2-(2-(1-Acetyl-3-(4-methoxyphenyl)-4,5-dihydro-1H-pyrazol-5-yl)phenoxy)-N-hydroxy acetamide], the melting point (commonly the temperature, or range, at which the solid turns liquid) fell in the range of 120 to 122 °C. Besides, the midpoint of inhibition in data set [1], the IC50, lay at 3.8 ± 0.2 µM.
Take `CC(=O)N1N=C(c2cccc(Br)c2)CC1c1ccccc1OCC(=O)NO` (stereo not shown) [Compound 14b, 2-(2-(1-Acetyl-3-(3-bromophenyl)-4,5-dihydro-1H-pyrazol-5-yl)phenoxy)-N-hydroxy acetamide]: the melting point was in the range of 152 to 154 °C. Besides, the midpoint of inhibition in data set [1], the IC50, lay at 0.32 ± 0.03 µM.
The matching figures for `NC(=O)N1N=C(c2ccccc2OCc2cccc(Br)c2)CC1c1ccccc1OCC(=O)NO` (stereo not shown) [Compound 14ff, 3-(2-((3-Bromobenzyl)oxy)phenyl)-5-(2-(2-(hydroxyamino)-2-oxoethoxy)phenyl)-4,5-dihydro-1H-pyrazole-1-carboxamide]: 120 to 122 °C and 0.058 ± 0.003 µM.
The like results for `CC(=O)N1N=C(c2ccccc2OCc2ccccc2)CC1c1ccccc1OCC(=O)NO` (stereo not shown) [Compound 14aa, 2-(2-(1-Acetyl-3-(2-(benzyloxy)phenyl)-4,5-dihydro-1H-pyrazol-5-yl)phenoxy)-N-hydroxyacetamide] were, in that order, 162 to 164 °C and 0.017 ± 0.001 µM.
The like results for `NC(=O)N1N=C(c2ccccc2I)CC1c1ccccc1OCC(=O)NO` (stereo not shown) [Compound 14j, 5-(2-(2-(Hydroxyamino)-2-oxoethoxy)phenyl)-3-(2-iodophenyl)-4,5-dihydro-1H-pyrazole-1-carboxamide] were, in that order, 164 to 166 °C and 0.044 ± 0.003 µM.
Take `COc1cccc(C2=NN(C(C)=O)C(c3ccccc3OCC(=O)NO)C2)c1` (stereo not shown) [Compound 14e, 2-(2-(1-Acetyl-3-(3-methoxyphenyl)-4,5-dihydro-1H-pyrazol-5-yl)phenoxy)-N-hydroxy acetamide]: the melting point lay in the range of 170 to 172 °C. In data set [1], the IC50 – broadly, the concentration that inhibits the measured activity by half – turned out to be 0.37 µM.
In data set [1], `NC(=O)N1N=C(c2c(Cl)cccc2Cl)CC1c1ccccc1OCC(=O)NO` (stereo not shown) [Compound 13c, reference compound] registered an IC50 of 0.059 ± 0.002 µM.
`CC(=O)N1N=C(c2ccccc2C)CC1c1ccccc1OCC(=O)NO` (stereo not shown) [Compound 14k, 2-(2-(1-Acetyl-3-(o-tolyl)-4,5-dihydro-1H-pyrazol-5-yl)phenoxy)-N-hydroxyacetamide] displayed a melting point of 170 to 172 °C. Further, in data set [1], it took 0.21 ± 0.01 µM to reach half-maximal inhibition (IC50).
As for `NC(=O)N1N=C(c2ccccc2OCc2ccccc2Br)CC1c1ccccc1OCC(=O)NO` (stereo not shown) [Compound 14dd, 3-(2-((2-Bromobenzyl)oxy)phenyl)-5-(2-(2-(hydroxyamino)-2-oxoethoxy)phenyl)-4,5-dihydro-1H-pyrazole-1-carboxamide], the melting point was in the range of 92 to 94 °C. Besides, the IC50 in data set [1] came to 0.23 ± 0.01 µM.
The like results for `NC(=O)N1N=C(c2ccccc2OCc2ccccc2)CC1c1ccccc1OCC(=O)NO` (stereo not shown) [Compound 14bb, 3-(2-(Benzyloxy)phenyl)-5-(2-(2-(hydroxyamino)-2-oxoethoxy)phenyl)-4,5-dihydro-1H-pyrazole-1-carboxamide] were, in that order, 176 to 178 °C and 0.015 ± 0.001 µM.
The like results for `CC(=O)N1N=C(c2ccc(Br)cc2)CC1c1ccccc1OCC(=O)NO` (stereo not shown) [Compound 14c, 2-(2-(1-Acetyl-3-(4-bromophenyl)-4,5-dihydro-1H-pyrazol-5-yl)phenoxy)-N-hydroxy acetamide] were, in that order, 202 to 204 °C and 4.4 ± 0.3 µM.
The like results for `CC(=O)N1N=C(c2ccccc2I)CC1c1ccccc1OCC(=O)NO` (stereo not shown) [Compound 14i, 2-(2-(1-Acetyl-3-(2-iodophenyl)-4,5-dihydro-1H-pyrazol-5-yl)phenoxy)-N-hydroxy acetamide] were, in that order, 174 to 176 °C and 0.015 ± 0.001 µM.
Compound `COc1ccccc1C1=NN(C(C)=O)C(c2ccccc2OCC(=O)NO)C1` (stereo not shown) [Compound 14d, 2-(2-(1-Acetyl-3-(2-methoxyphenyl)-4,5-dihydro-1H-pyrazol-5-yl)phenoxy)-N-hydroxy acetamide] came in with a melting point of 170 to 172 °C. In data set [1], this compound gave an IC50 of 0.32 ± 0.01 µM.
Regarding `CC(=O)N1N=C(c2ccccc2Cl)CC1c1ccccc1OCC(=O)NO` (stereo not shown) [Compound 14h, 2-(2-(1-Acetyl-3-(2-chlorophenyl)-4,5-dihydro-1H-pyrazol-5-yl)phenoxy)-N-hydroxy acetamide], the melting point lay within 166 to 168 °C. For the same compound, the IC50 in data set [1] was 0.029 ± 0.002 µM.
On to `NC(=O)N1N=C(c2ccccc2)CC1c1ccccc1OCC(=O)NO` (stereo not shown) [Compound 13b, reference compound], for which, in data set [1], the midpoint of inhibition, the IC50, lay at 0.16 ± 0.01 µM.
`CC(=O)N1N=C(c2ccc(Cl)cc2Cl)CC1c1ccccc1OCC(=O)NO` (stereo not shown) [Compound 14l, 2-(2-(1-Acetyl-3-(2,4-dichlorophenyl)-4,5-dihydro-1H-pyrazol-5-yl)phenoxy)-N-hydroxyacetamide] returned a melting point of 128 to 130 °C. For the same compound, the IC50 in data set [1] came to 0.58 ± 0.04 µM.
Regarding `CC(=O)N1N=C(c2ccccc2OCc2cccc(Br)c2)CC1c1ccccc1OCC(=O)NO` (stereo not shown) [Compound 14ee, 2-(2-(1-Acetyl-3-(2-((3-bromobenzyl)oxy)phenyl)-4,5-dihydro-1H-pyrazol-5-yl)phenoxy)-N-hydroxyacetamide], the melting point fell in the range of 164 to 166 °C. Besides, the concentration for half-maximal inhibition (IC50) in data set [1] stood at 0.031 ± 0.002 µM.
`NC(=O)N1N=C(c2ccccc2I)CC1c1ccc(Br)cc1OCC(=O)NO` (stereo not shown) [Compound 14t, 5-(4-Bromo-2-(2-(hydroxyamino)-2-oxoethoxy)phenyl)-3-(2-iodophenyl)-4,5-dihydro-1H-pyrazole-1-carboxamide] showed a melting point of 196 to 198 °C. The compound also gave an IC50 in data set [1] of 1.6 ± 0.1 µM.
`CC(=O)N1N=C(c2cccc3ccccc23)CC1c1ccccc1OCC(=O)NO` (stereo not shown) [Compound 14p, 2-(2-(1-Acetyl-3-(naphthalen-1-yl)-4,5-dihydro-1H-pyrazol-5-yl)phenoxy)-N-hydroxy acetamide] yielded a melting point of 198 to 200 °C. This compound also had an IC50 in data set [1] of 0.31 ± 0.02 µM.
The compound `NC(=O)N1N=C(c2ccccc2I)CC1c1c(Cl)cccc1OCC(=O)NO` (stereo not shown) [Compound 14z, 5-(2-Chloro-6-(2-(hydroxyamino)-2-oxoethoxy)phenyl)-3-(2-iodophenyl)-4,5-dihydro-1H-pyrazole-1-carboxamide] registered a melting point of 190 to 192 °C. For the same compound, the concentration for half-maximal inhibition (IC50) in data set [1] is 0.07 ± 0.003 µM.
The like results for `NC(=O)N1N=C(c2ccccc2I)CC1c1c(Br)cccc1OCC(=O)NO` (stereo not shown) [Compound 14x, 5-(2-Bromo-6-(2-(hydroxyamino)-2-oxoethoxy)phenyl)-3-(2-iodophenyl)-4,5-dihydro-1H-pyrazole-1-carboxamide] were, in that order, 132 to 134 °C and 0.09 ± 0.005 µM.
In turn, `CC(=O)N1N=C(c2ccccc2I)CC1c1cccc(Br)c1OCC(=O)NO` (stereo not shown) [Compound 14q, 2-(2-(1-Acetyl-3-(2-iodophenyl)-4,5-dihydro-1H-pyrazol-5-yl)-6-bromophenoxy)-N-hydroxyacetamide] showed a melting point of 96 to 98 °C. In addition, the IC50 in data set [1] is 3.5 ± 0.2 µM.
As for `CC(=O)N1N=C(c2ccccc2OCc2ccc(Br)cc2)CC1c1ccccc1OCC(=O)NO` (stereo not shown) [Compound 14gg, 2-(2-(1-Acetyl-3-(2-((4-bromobenzyl)oxy)phenyl)-4,5-dihydro-1H-pyrazol-5-yl)phenoxy)-N-hydroxyacetamide], the melting point lay in the range of 96 to 98 °C. The IC50 in data set [1] came out at 0.56 ± 0.04 µM.
Compound `NC(=O)N1N=C(c2ccccc2I)CC1c1cccc(Br)c1OCC(=O)NO` (stereo not shown) [Compound 14r, 5-(3-Bromo-2-(2-(hydroxyamino)-2-oxoethoxy)phenyl)-3-(2-iodophenyl)-4,5-dihydro-1H-pyrazole-1-carboxamide] showed a melting point of 140 to 142 °C. This compound displayed an IC50 in data set [1] of 3.4 ± 0.3 µM.
In data set [1], `CC(=O)N1N=C(c2ccccc2)CC1c1ccccc1OCC(=O)NO` (stereo not shown) [Compound 13a, reference compound] registered an IC50 of 0.32 ± 0.01 µM.
On to `CC(=O)N1N=C(c2ccccc2I)CC1c1c(Cl)cccc1OCC(=O)NO` (stereo not shown) [Compound 14y, 2-(2-(1-Acetyl-3-(2-iodophenyl)-4,5-dihydro-1H-pyrazol-5-yl)-3-chlorophenoxy)-N-hydroxyacetamide], for which the melting point was in the range of 168 to 170 °C. In data set [1], this compound registered an IC50 of 0.023 ± 0.001 µM.
